According to patent US5045543A, “5-amino or substituted amino 1,2,3-triazoles useful as antimetastatic agents” (Merck & Co., Inc., priority 1989, dated 1991):
“Also recorded” adds a separate entry of the source.

Experiments:
[1] = tested on: PRPP synthetase; assay: PRPP synthetase activity / PRPP biosynthesis in cell based experiments
[2] = tested on: PRPP synthetase; assay: Direct inhibition of PRPP synthetase in vitro; type: biochemical; details: in vitro studies
[3] = tested on: LTA4 hydrolase; assay: Direct inhibition of LTA4 hydrolase; type: biochemical
[4] = tested on: Normal Human Fibroblasts; assay: Inhibition of fibroblast growth; type: cell-based; details: for inhibition at 0.1 µg/mL / inhibition at 0.2 µg/mL / inhibition at 0.4 µg/mL / inhibition at 1 µg/mL / inhibition at 2 µg/mL: Homo sapiens, Fibroblast
Protocol: (§1) The inhibition of PRPP biosynthesis by Compound A and analogs supported the claimed use of the compounds as antiproliferative agents, since this inhibition should prevent all de novo and salvage biosynthesis of purine and pyrimidine nucleotides. […] The data from NHEK's is particularly important since it is the overproliferation of these cells that occurs in psoriasis.
(§2) In these experiments Murine keratinocyte transformed cell line PAPp26 was cultured in Dulbecco's modified Eagle's medium with 10% fetal calf serum at 37° C., 5% CO2. Each well of a 96 well plate was seeded with 2000 cells in 200 μl of each drug dilution in duplicate. A plate was stopped and fixed for each time point, stained with Giemsa and then read in a Titertek plate reader at 650 nm, and the absorbances were calibrated with known cell numbers on control plates. NHEK's were obtained from Clonetics Corporation at the secondary stage. Antiproliferative assays were done as for the murine keratinocytes. Media (KGM) without serum was supplied by Clonetics also. Normal Human Fibroblasts and MDBK cells were grown under the same conditions except that MDBK cells were grown at 41° C.

[5] = tested on: MDBK cells; assay: Inhibition of the growth of MDBK cells; type: cell-based, Bovine; details: for inhibition at 1 µg/mL / inhibition at 2 µg/mL: Bos taurus, MDBK
Protocol: as §1, §2

[6] = tested on: Maden Darby Bovine Kidney (MDBK) cells; assay: 3H-Hypoxanthine uptake (incorporation) into MDBK cells; type: cell-based; details: 1.0 μg/ml; for inhibition at 1 µg/mL: Bos taurus, MDBK
Protocol: Compound A and analogs are capable of inhibiting nucleotide biosynthesis in a variety of mammalian cell types.
Confluent cells were incubated in Eagles Minimal Essential media for 2.5 hours, then incubated with Phosphate buffered saline +Ca +Mg for 30 minutes, and then they were incubated with or without 1 μg/ml Compound A for 15 minutes. Media containing 100 μM 8-^3 H-hypoxanthine with or without drug was incubated for the time shown with the cells after which they were quenched by immersion in ice cold buffer. The DPM measurements were made on aliquots of neutralized perchloric acid supernatants.

[7] = tested on: pig skin epidermal basal cells (keratinocytes); assay: UV induced hyperproliferation in pig skin in vivo (topical antiproliferative activity); details: for effect on uv induced hyperproliferation: daily topical application; for LI (labelling index): uv exposed Gel #1 control 20.8, normal 7.6
Protocol: The topical antiproliferative activities, along with in vitro antiproliferative activities against human keratinocytes and fibroblasts, provide the biological data in support of the claimed utility:
In one experiment, a 20 kg pig was sedated and multiple areas of clipped skin were exposed to uv radiation sufficient to provoke a moderate hyperproliferative response within several days of exposure. On days 0, 1, 2 and 3 replicate irradiated sites were treated topically with Compound A in several vehicles or solvents. Topical preparations included a 2% drug in Gel #1, a combination of isopropyl myristate:Crodamol:ethanol, 1:1:2, or DMSO. The hyperproliferative response of the skin to uv was assessed on day 4 by injecting ^3 H-thymidine intradermally, and, 1 hour later, removing the sites by punch biopsy and processing the samples for autoradiography. Such autoradiographs indicate the number of epidermal cells in S phase synthesizing DNA and this is a common tool used by dermatologists to assess inhibition of proliferation in vivo. A single injection of methotrexate, 4 hours prior to ^3 H-thymidine injection was used as a positive control for inhibition of DNA synthesis. A labelling index, L.I., which is the percent of the total number of epidermal basal cells (keratinocytes) counted showing label incorporation. Four days after exposure to uv, the L.I. of pig skin increased from 7.6% to 20.8% (normal human skin ca. 2%, psoriatic lesions ca. 25%, for comparison).

In the case of `NC(=O)c1nnn(Cc2cc(Cl)c(C(=O)c3ccc(Cl)cc3)c(Cl)c2)c1N` [Compound A, 5-amino-1-(4-(4-chlorobenzoyl)-3,5-dichlorobenzyl)-1,2,3-triazole-4-carboxamide], the PRPP synthetase activity [1] is reported as “dramatically lowered”, the “direct inhibition of PRPP synthetase” value [2] is reported as “no direct inhibition of the enzyme occurred” and the “direct inhibition of LTA4 hydrolase” value [3] is reported as “no evidence of direct inhibition”. For the same compound, the “Fibroblast growth, No. of Cells - seeding cells” value (from here on “Fibroblast growth, No. of Cells”) ([4]; 0.1 μg/ml, 2 days, control 10.5 × 10^3) was 4 × 10^3, the “Fibroblast growth, No. of Cells” value ([4]; 0.1 μg/ml, 3 days, control 14 × 10^3) was 5 × 10^3 and the “Fibroblast growth, No. of Cells” value ([4]; 0.1 μg/ml, 6 days, control 23 × 10^3) was 19 × 10^3. For the same compound, the “Fibroblast growth, No. of Cells” value ([4]; 0.2 μg/ml, 2 days, control 10.5 × 10^3) was 5 × 10^3, the “Fibroblast growth, No. of Cells” value ([4]; 0.2 μg/ml, 3 days, control 14 × 10^3) was 2 × 10^3 and the “Fibroblast growth, No. of Cells” value ([4]; 0.2 μg/ml, 6 days, control 23 × 10^3) was 16.5 × 10^3. The “Fibroblast growth, No. of Cells” value ([4]; 0.4 μg/ml, 2 days, control 10.5 × 10^3) was 7 × 10^3, the “Fibroblast growth, No. of Cells” value ([4]; 0.4 μg/ml, 3 days, control 14 × 10^3) was 6.5 × 10^3 and the “Fibroblast growth, No. of Cells” value ([4]; 0.4 μg/ml, 6 days, control 23 × 10^3) was 13 × 10^3. The “Fibroblast growth, No. of Cells” value ([4]; 1.0 μg/ml, 2 days, control 10.5 × 10^3) was 2 × 10^3, the “Fibroblast growth, No. of Cells” value ([4]; 1.0 μg/ml, 3 days, control 14 × 10^3) was 0 and the “Fibroblast growth, No. of Cells” value ([4]; 1.0 μg/ml, 6 days, control 23 × 10^3) was 6 × 10^3. The “Fibroblast growth, No. of Cells” value ([4]; 2.0 μg/ml, 2 days, control 10.5 × 10^3) was 2 × 10^3, the “Fibroblast growth, No. of Cells” value ([4]; 2.0 μg/ml, 3 days, control 14 × 10^3) was “.5 × 10^3” and the “Fibroblast growth, No. of Cells” value ([4]; 2.0 μg/ml, 6 days, control 23 × 10^3) was 4 × 10^3. The inhibition at 0.1 µg/mL ([4]; 48 h, 0.1 μg/ml, 2 days) was 62%, the inhibition at 0.2 µg/mL ([4]; 48 h, 0.2 μg/ml, 2 days) was 48% and the inhibition at 0.4 µg/mL ([4]; 48 h, 0.4 μg/ml, 2 days) was 33%. The inhibition at 1 µg/mL ([4]; 48 h, 1.0 μg/ml, 2 days) was 81%, the inhibition at 2 µg/mL ([4]; 48 h, 2.0 μg/ml, 2 days) was 81% and the inhibition at 0.1 µg/mL ([4]; 72 h, 0.1 μg/ml, 3 days) was 64%. The inhibition at 0.2 µg/mL ([4]; 72 h, 0.2 μg/ml, 3 days) was 86%, the inhibition at 0.4 µg/mL ([4]; 72 h, 0.4 μg/ml, 3 days) was 54% and the inhibition at 1 µg/mL ([4]; 72 h, 1.0 μg/ml, 3 days) was 100%. It also gave an inhibition at 2 µg/mL ([4]; 72 h, 2.0 μg/ml, 3 days) of 96%, an inhibition at 0.1 µg/mL ([4]; 144 h, 0.1 μg/ml, 6 days) of 18% and an inhibition at 0.2 µg/mL ([4]; 144 h, 0.2 μg/ml, 6 days) of 28%. It also gave an inhibition at 0.4 µg/mL ([4]; 144 h, 0.4 μg/ml, 6 days) of 44%, an inhibition at 1 µg/mL ([4]; 144 h, 1.0 μg/ml, 6 days) of 74% and an inhibition at 2 µg/mL ([4]; 144 h, 2.0 μg/ml, 6 days) of 83%. The “inhibition of growth of Normal Human Fibroblasts” value ([4]; approximately 1.0 μg/ml) was “substantial inhibition”, the “MDBK growth, # Cells × 10^6 - # Cells Seeded” value (“MDBK growth” below) ([5]; 1.0 μg/ml, 1 day, control 1.40) was 0 × 10^6 and the “MDBK growth” value ([5]; 1.0 μg/ml, 3 days, control 4.86) was 3.12 × 10^6. For the same compound, the “MDBK growth” value ([5]; 2.0 μg/ml, 1 day, control 1.40) was 0 × 10^6, the “MDBK growth” value ([5]; 2.0 μg/ml, 3 days, control 4.86) was 0 × 10^6 and the inhibition at 1 µg/mL ([5]; 24 h, 1.0 μg/ml, 1 day) was 100%. The inhibition at 2 µg/mL ([5]; 24 h, 2.0 μg/ml, 1 day) was 100%, the inhibition at 1 µg/mL ([5]; 72 h, 1.0 μg/ml, 3 days) was 36% and the inhibition at 2 µg/mL ([5]; 72 h, 2.0 μg/ml, 3 days) was 100%. The “inhibition of growth of MDBK cells” value ([5]; approximately 1.0 μg/ml) was “substantial inhibition”, the “3H-hypoxanthine incorporation into MDBK cells” value ([6]; Eagles Minimal Essential media) was “substantially reduced” and the “3H-Hypoxanthine Uptake, DPM” value ([6]; 10 min, control 87000) was 36000 DPM. For the same compound, the “3H-Hypoxanthine Uptake, DPM” value ([6]; 20 min, control 140000) was 40000 DPM, the “3H-Hypoxanthine Uptake, DPM” value ([6]; 30 min, control 190000) was 40000 DPM and the inhibition at 1 µg/mL ([6]; 10 min) was 59%. For the same compound, the inhibition at 1 µg/mL ([6]; 20 min) was 71%, the inhibition at 1 µg/mL ([6]; 30 min) was 79% and the “inhibition of uv induced hyperproliferation in pig skin” value ([7]; 2% formulation in Gel #1, topical) was “inhibits completely”. The “effect on uv induced hyperproliferation” value ([7]; Crodamol) was “less effective”, the “effect on uv induced hyperproliferation” value ([7]; DMSO) was “no effect” and the “effect on uv induced hyperproliferation” value ([7]; Gel #1) was “dramatically reduced the uv induced hyperproliferation”. For the same compound, the topical antiproliferative activity ([7]; effects dependent upon vehicle) was “active topically as an antiproliferative; also recorded: Topical activity against keratinocyte proliferation has been demonstrated”, the “UV induced hyperproliferation, % Inhibition” value ([7]; topical, Crodamol) was 29% and the “Labelled Cells” value ([7]; topical, Crodamol, of 963 basal cells counted) was 165. For the same compound, the “LI (labelling index)” value ([7]; topical, Crodamol) was 17.0%, the “UV induced hyperproliferation, % Inhibition” value ([7]; topical, DMSO) was 0% and the “Labelled Cells” value ([7]; topical, DMSO, of 744 basal cells counted) was 150. The “LI (labelling index)” value ([7]; topical, DMSO) was 20.1%, the “UV induced hyperproliferation, % Inhibition” value ([7]; topical, Gel #1) was 100% and the “inhibition of proliferation compared with injected methotrexate” value ([7]; topical, Gel #1) was “comparable to that for injected methotrexate”. The “Labelled Cells” value ([7]; topical, Gel #1, of 1020 basal cells counted) was 57 and the “LI (labelling index)” value ([7]; topical, Gel #1) was 5.6%.
